What all share (type): functional
One experiment deals with SK-MEL-2. Kind of experiment: Cytotoxicity against human SK-MEL-2 cells assessed as cell growth at 50 nM after 48 hrs by SRB assay. The note with it: SK-MEL-2, 48 h, read-out: Activity. (The SRB assay estimates cell density from bound dye.)
Experiment [1] in a line: Cytotoxicity against human TK10 cells assessed as cell growth at 5 nM after 48 hrs by SRB assay. To be noted: TK-10, 48 h, read-out: Activity.
In experiment [2] the test system is NCI-H322M. Kind of experiment: Cytotoxicity against human NCI-H322M cells assessed as cell growth at 0.5 uM after 48 hrs by SRB assay. The note with it: read-out: Activity.
Experiment [3] in a line: Cytotoxicity against human UACC257 cells assessed as cell growth at 0.5 uM after 48 hrs by SRB assay. The note with it: UACC-257, 48 h, read-out: Activity.
Experiment [4] is described as follows: Cytotoxicity against human HCC2998 cells assessed as cell growth at 50 uM after 48 hrs by SRB assay. The note with it: HCC 2998, 48 h, read-out: Activity.
The subject of the next experiment is EKVX. The experiment can be described thus: Cytotoxicity against human EKVX cells assessed as cell growth at 0.5 uM after 48 hrs by SRB assay. To be noted: read-out: Activity.
The nature of experiment [5]: Cytotoxicity against human SNB19 cells assessed as cell growth at 50 uM after 48 hrs by SRB assay. To be noted: SNB-19, 48 h, read-out: Activity.
Experiment [6] in a line: Cytotoxicity against human HL-60(TB) cells assessed as cell growth at 50 uM after 48 hrs by SRB assay. The note with it: HL-60, 48 h, read-out: Activity.
Experiment [7] has as its system NCI-H322M. Kind of experiment: Cytotoxicity against human NCI-H322M cells assessed as cell growth at 50 uM after 48 hrs by SRB assay. The note with it: read-out: Activity.
Experiment [8] in a line: Cytotoxicity against human SW620 cells assessed as cell growth at 50 nM after 48 hrs by SRB assay. To be noted: SW-620, 48 h, read-out: Activity.
Experiment [9] in a line: Cytotoxicity against human SNB19 cells assessed as cell growth at 5 nM after 48 hrs by SRB assay. The note with it: SNB-19, 48 h, read-out: Activity.
A short description of experiment [10]: Cytotoxicity against human COLO205 cells assessed as cell growth at 50 nM after 48 hrs by SRB assay. The note with it: COLO 205, 48 h, read-out: Activity.
Experiment [11] concerns SN12C. Kind of experiment: Cytotoxicity against human SN12C cells assessed as cell growth at 50 nM after 48 hrs by SRB assay. The note with it: read-out: Activity.
A short description of experiment [12]: Cytotoxicity against human IGROV1 cells assessed as cell growth at 0.5 uM after 48 hrs by SRB assay. To be noted: IGROV-1, 48 h, read-out: Activity.
For another experiment, the system named is A498. Kind of experiment: Cytotoxicity against human A498 cells assessed as cell growth at 5 uM after 48 hrs by SRB assay. The note with it: A498, 48 h, read-out: Activity.
Experiment [13] in a line: Cytotoxicity against human PC3 cells assessed as cell growth at 50 uM after 48 hrs by SRB assay. The note with it: PC-3, 48 h, read-out: Activity.
In another experiment the test system is CCRF-CEM. The experiment can be described thus: Cytotoxicity against human CCRF-CEM cells assessed as cell growth at 10^-4 M after 48 hrs by SRB assay. The note with it: read-out: Activity.
The test system of the next experiment is SK-MEL-5. The experiment can be described thus: Cytotoxicity against human SK-MEL-5 cells assessed as cell growth at 10^-5 M after 48 hrs by SRB assay. To be noted: SK-MEL-5, 48 h, read-out: Activity.
Experiment [14] in a line: Cytotoxicity against human HCT116 cells assessed as cell growth at 10^-4 M after 48 hrs by SRB assay. To be noted: HCT-116, 48 h, read-out: Activity.
For experiment [15], the system named is SN12C. The experiment can be described thus: Cytotoxicity against human SN12C cells assessed as cell growth at 10^-6 M after 48 hrs by SRB assay. The note with it: read-out: Activity.
Experiment [16] in a line: Cytotoxicity against human MOLT4 cells assessed as cell growth at 10^-8 M after 48 hrs by SRB assay. To be noted: MOLT-4, 48 h, read-out: Activity.
The subject of experiment [17] is SN12C. The experiment can be described thus: Cytotoxicity against human SN12C cells assessed as cell growth at 10^-7 M after 48 hrs by SRB assay. To be noted: read-out: Activity.
Experiment [18] in a line: Cytotoxicity against human UACC62 cells assessed as cell growth at 10^-4 M after 48 hrs by SRB assay. To be noted: UACC-62, 48 h, read-out: Activity.
Another experiment concerns MDA-MB-231. Kind of experiment: Cytotoxicity against human MDA-MB-231 cells assessed as cell growth at 10^-7 M after 48 hrs by SRB assay. To be noted: MDA-MB-231, 48 h, read-out: Activity.
Experiment [19] has as its system NCI-H460. Kind of experiment: Cytotoxicity against human NCI-H460 cells assessed as cell growth at 10^-4 M after 48 hrs by SRB assay. To be noted: NCI-H460, 48 h, read-out: Activity.
A short description of experiment [20]: Cytotoxicity against human RXF393 cells assessed as cell growth at 10^-5 M after 48 hrs by SRB assay. To be noted: RXF 393, 48 h, read-out: Activity.
Experiment [21] can be described thus: Cytotoxicity against human MOLT4 cells assessed as cell growth at 10^-5 M after 48 hrs by SRB assay. The note with it: MOLT-4, 48 h, read-out: Activity.
A short description of experiment [22]: Cytotoxicity against human HOP92 cells assessed as cell growth at 10^-4 M after 48 hrs by SRB assay. To be noted: HOP-92, 48 h, read-out: Activity.
Experiment [23] can be described thus: Cytotoxicity against human PC3 cells assessed as cell growth at 10^-5 M after 48 hrs by SRB assay. To be noted: PC-3, 48 h, read-out: Activity.
A short description of experiment [24]: Cytotoxicity against human Hs 578T cells assessed as cell growth at 10^-7 M after 48 hrs by SRB assay. The note with it: read-out: Activity.
The nature of experiment [25]: Cytotoxicity against human HCC2998 cells assessed as cell growth at 10^-4 M after 48 hrs by SRB assay. The note with it: HCC 2998, 48 h, read-out: Activity.
A short description of experiment [26]: Cytotoxicity against human SNB19 cells assessed as cell growth at 10^-7 M after 48 hrs by SRB assay. The note with it: SNB-19, 48 h, read-out: Activity.
Experiment [27] can be described thus: Cytotoxicity against human HOP62 cells assessed as cell growth at 10^-4 M after 48 hrs by SRB assay. The note with it: HOP-62, 48 h, read-out: Activity.
For a further experiment, the system named is HT-29. Kind of experiment: Cytotoxicity against human HT-29 cells assessed as cell growth at 10^-8 M after 48 hrs by SRB assay. To be noted: HT-29, 48 h, read-out: Activity.
The test system of experiment [28] is NCI-H460. The experiment can be described thus: Cytotoxicity against human NCI-H460 cells assessed as cell growth at 10^-7 M after 48 hrs by SRB assay. The note with it: NCI-H460, 48 h, read-out: Activity.
In a further experiment the test system is SR. The experiment can be described thus: Cytotoxicity against human SR cells assessed as cell growth at 10^-8 M after 48 hrs by SRB assay. To be noted: read-out: Activity.
In another experiment the test system is M14. The experiment can be described thus: Cytotoxicity against human M14 cells assessed as cell growth at 10^-4 M after 48 hrs by SRB assay. The note with it: M14, 48 h, read-out: Activity.
The nature of experiment [29]: Cytotoxicity against human Caki1 cells assessed as cell growth at 10^-7 M after 48 hrs by SRB assay. The note with it: CAKI-1, 48 h, read-out: Activity.
Experiment [30] can be described thus: Cytotoxicity against human UACC257 cells assessed as cell growth at 10^-4 M after 48 hrs by SRB assay. To be noted: UACC-257, 48 h, read-out: Activity.
A further experiment relates to ACHN. The experiment can be described thus: Cytotoxicity against human ACHN cells assessed as cell growth at 10^-7 M after 48 hrs by SRB assay. To be noted: read-out: Activity.
For the next experiment, the system named is SK-MEL-28. Kind of experiment: Cytotoxicity against human SK-MEL-28 cells assessed as cell growth at 10^-8 M after 48 hrs by SRB assay. To be noted: SK-MEL-28, 48 h, read-out: Activity.
The nature of experiment [31]: Cytotoxicity against human COLO205 cells assessed as cell growth at 10^-5 M after 48 hrs by SRB assay. To be noted: COLO 205, 48 h, read-out: Activity.

Molecules are shown by their SMILES.

Take `CCCCCCCCCC(=O)Oc1ccc(/C(=C(/C)c2ccccc2)c2ccc(OCCN3CCCC3)cc2)cc1`: the growth at 0.05 µM in the experiment with SK-MEL-2 came out at 101%; in [8], 97%; in experiment [10] it was 96%; in the experiment on SN12C [11], 101%. Also, the growth at 0.005 µM in experiment [1] stood at 96%; in [9], 98%. For the same molecule, the growth at 0.5 µM was 73% in the experiment with NCI-H322M [2], 76% in [3], 78% in the experiment with EKVX and 72% in experiment [12]. Besides, the growth at 50 µM is -77% in experiment [4]; -77% in experiment [5]; -70% in experiment [6]; -86% in the experiment on NCI-H322M [7]; -90% in experiment [13]. The growth at 5 µM in the experiment on A498 was 64%.
For `C/C(=C(/c1ccc(O)cc1)c1ccc(OCCN2CCCC2)cc1)c1ccccc1`, the growth at 100 µM in the experiment with CCRF-CEM is -71%; in experiment [14], -98%; in [18], -79%; in the experiment on NCI-H460 [19] it was -92%; in experiment [22], -88%; in experiment [25], -80%. The growth at 100 µM is -86% in [27], -96% in the experiment on M14 and -99% in [30]. In addition, the growth at 10 µM with SK-MEL-5 is -99%; in [20] it was -37%; in experiment [21], 3%; in [23], 19%; in experiment [31], -79%. The growth at 1 µM with SN12C [15] was found to be 101%. Also, the growth at 0.01 µM in experiment [16] stood at 102%; in the experiment with HT-29 it was 101%; in the experiment on SR it was 96%; in the experiment on SK-MEL-28, 90%. Moreover, the growth at 0.1 µM in the experiment on SN12C [17] turned out to be 104%; in the experiment with MDA-MB-231 it was 116%; in experiment [24], 101%; in experiment [26], 101%; in the experiment with NCI-H460 [28], 106%; in experiment [29], 88%. For the same molecule, the growth at 0.1 µM with ACHN was 97%.

The values above are taken from ChEMBL document CHEMBL3774317, “Design and synthesis of novel tamoxifen analogues that avoid CYP2D6 metabolism” (Eur J Med Chem, 2016).
